# Assay results taken from patent publication US12358893B2, “Metalloenzyme inhibitor compounds” (Corxel Pharmaceuticals Hong Kong Limited, priority 2019, dated 2025).
# Columns and labels:
# [1] = target: T1, recombinant human CYP11B2 (Homo sapiens, UniProt P19099); experiment: CYP11B2 enzyme assay with enzyme enriched microsomes, aldosterone measured by LC-MS; format: biochemical; details: microsomes from V79-4 cells; 11-deoxycorticosterone at Km; read-out: hCYP11B2 IC50
# T1 construct: made in house; host or cells: V79-4 cells (Chinese hamster lung fibroblasts); enzyme-enriched microsomal fraction of the lysate
# T1 sequence (P19099 25-503): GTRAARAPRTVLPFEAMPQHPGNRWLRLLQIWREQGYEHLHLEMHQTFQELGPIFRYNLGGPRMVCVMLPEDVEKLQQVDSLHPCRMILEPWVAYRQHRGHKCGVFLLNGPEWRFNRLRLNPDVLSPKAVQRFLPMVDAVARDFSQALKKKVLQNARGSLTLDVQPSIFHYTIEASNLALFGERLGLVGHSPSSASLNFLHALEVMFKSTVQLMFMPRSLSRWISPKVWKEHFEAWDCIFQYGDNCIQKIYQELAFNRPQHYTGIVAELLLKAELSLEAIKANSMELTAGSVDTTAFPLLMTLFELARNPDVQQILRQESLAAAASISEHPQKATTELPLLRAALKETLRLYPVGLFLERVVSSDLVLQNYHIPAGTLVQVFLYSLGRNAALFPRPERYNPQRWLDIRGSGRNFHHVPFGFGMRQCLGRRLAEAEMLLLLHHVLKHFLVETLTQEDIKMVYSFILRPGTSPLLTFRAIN
# Method: (§1) V79-4 cells expressing recombinant andrenodoxin and andrenodoxin reductase with either recombinant human CYP11B2 or CYP11B1 were prepared according to methods previously described (LaSala et al 2009 Anal Bioch 394:56-61). An enzyme enriched microsomal fraction was prepared from cellular lysates and subsequently used as the enzyme source for determining inhibitor IC50s. The substrate Km values were experimentally determined for 11-deoxycorticosterone (CYP11B2 substrate) and 11-deoxycortisol (CYP11B1 substrate). Enzyme assays for inhibitor screening employed CYP11B2 and CYP11B1 enzyme enriched microsomes and were run at the Km of the respective substrates. Products of the enzyme reactions, aldosterone for CYP11B2 or cortisol for CYP11B1, were measured by LC-MS. Assays were run under conditions of less than 20% substrate turnover. Inhibitor IC50s were generated by determining the product formation in the absence or presence of inhibitor at various concentrations. In the absence of the test compound, the product formed (Pt) in each data set was defined as 100% activity. In the absence of enzyme, the product formed (Pb) in each data set was defined as 0% activity. The percent activity in the presence of each inhibitor was calculated according to the following equation: % activity=(P−Pb)/(Pt−Pb), where P=the product formed in the presence of the inhibitor. The IC50 value was defined as the inhibitor concentration causing a 50% decrease in activity relative to the no inhibitor control reaction.
# [2] = target: T2, recombinant human CYP11B1 (Homo sapiens, UniProt P15538); experiment: CYP11B1 enzyme assay with enzyme enriched microsomes, cortisol measured by LC-MS; format: biochemical; details: microsomes from V79-4 cells; 11-deoxycortisol at Km; read-out: hCYP11B1 IC50
# T2 construct: made in house; host or cells: V79-4 cells (Chinese hamster lung fibroblasts); enzyme-enriched microsomal fraction of the lysate
# T2 sequence (P15538 25-503): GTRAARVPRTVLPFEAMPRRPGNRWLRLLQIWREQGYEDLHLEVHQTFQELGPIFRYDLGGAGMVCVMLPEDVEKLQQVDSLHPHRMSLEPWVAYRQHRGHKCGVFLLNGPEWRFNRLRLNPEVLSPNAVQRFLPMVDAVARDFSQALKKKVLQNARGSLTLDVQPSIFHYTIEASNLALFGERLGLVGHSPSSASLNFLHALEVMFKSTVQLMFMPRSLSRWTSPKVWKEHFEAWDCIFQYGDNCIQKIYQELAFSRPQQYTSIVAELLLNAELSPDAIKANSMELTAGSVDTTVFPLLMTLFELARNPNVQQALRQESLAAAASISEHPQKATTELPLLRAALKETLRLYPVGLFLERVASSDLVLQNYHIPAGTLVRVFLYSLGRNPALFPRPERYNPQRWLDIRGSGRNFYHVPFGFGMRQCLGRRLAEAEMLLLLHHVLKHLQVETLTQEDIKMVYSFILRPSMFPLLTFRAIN
# Method: as §1
Compound,IC50 [1],IC50 [2]
"Cc1ccc2c(c1)ncn2-c1nc2ccc(F)cc2n1C1CC1 [Example 8, 1′-cyclopropyl-6′-fluoro-5-methyl-1′H-1,2′-bibenzo[d]imidazole]",1 to 100 nM,100 to 1000 nM
"N#Cc1ccc2ncn(-c3nc4ccc(F)cc4n3C3CC3)c2c1 [Example 7, 1′-cyclopropyl-6′-fluoro-1′H-[1,2′-bibenzo[d]imidazole]-6-carbonitrile]",100 to 1000 nM,> 10000 nM
"N#Cc1ccc2nc(-n3cnc4cc(F)c(F)cc43)n(C3CC3)c2c1 [Example 25, 1′-cyclopropyl-5,6-difluoro-1′H-[1,2′-bibenzo[d]imidazole]-6′-carbonitrile]",1 to 100 nM,1000 to 10000 nM
"Fc1cc2nc(-n3cnc4cnccc43)n(C3CC3)c2cc1F [Example 35, 1-(1-cyclopropyl-5,6-difluoro-1H-benzo[d]imidazol-2-yl)-1H-imidazo[4,5-c]pyridine]",1 to 100 nM,1000 to 10000 nM
"N#Cc1ccc2nc(-n3cnc4ccncc43)n(C3CC3)c2c1 [Example 42, 1-cyclopropyl-2-(3H-imidazo[4,5-c]pyridin-3-yl)-1H-benzo[d]imidazole-6-carbonitrile]",1 to 100 nM,> 10000 nM
"Fc1cc2nc(-n3cnc4cnc(C(F)F)cc43)n(C3CC3)c2cc1F [Example 40, 1-(1-cyclopropyl-5,6-difluoro-1H-benzo[d]imidazol-2-yl)-6-(difluoromethyl)-1H-imidazo[4,5-c]pyridine]",1 to 100 nM,> 10000 nM
"O=C(O)c1cc2c(cn1)ncn2-c1nc2cc(F)c(F)cc2n1C1CC1 [Example 39, 1-(1-cyclopropyl-5,6-difluoro-1H-benzo[d]imidazol-2-yl)-1H-imidazo[4,5-c]pyridine-6-carboxylic acid]",1000 to 10000 nM,> 10000 nM
"Fc1ccc2c(c1)ncn2-c1nc2ccc(F)cc2n1C1CC1 [Example 18, 1′-cyclopropyl-5,6′-difluoro-1′H-1,2′-bibenzo[d]imidazole]",1 to 100 nM,100 to 1000 nM
"Fc1cc2nc(-n3cnc4cc(C(F)F)ncc43)n(C3CC3)c2cc1F [Example 41, 3-(1-cyclopropyl-5,6-difluoro-1H-benzo[d]imidazol-2-yl)-6-(difluoromethyl)-3H-imidazo[4,5-c]pyridine]",1 to 100 nM,1000 to 10000 nM
"Fc1cc2nc(-n3cnc4ccc(OC(F)F)cc43)n(C3CC3)c2cc1F [Example 53, 1′-cyclopropyl-6-(difluoromethoxy)-5′,6′-difluoro-1′H-1,2′-bibenzo[d]imidazole]",1 to 100 nM,1000 to 10000 nM
"Fc1cc2nc(-n3cnc4ccccc43)n(C3CC3)c2cc1F [Example 16, 1′-cyclopropyl-5′,6′-difluoro-1′H-1,2′-bibenzo[d]imidazole]",1 to 100 nM,100 to 1000 nM
"CS(=O)(=O)Nc1ccc2ncn(-c3nc4ccc(F)c(F)c4n3C3CC3)c2c1 [Example 33, N-(1′-cyclopropyl-6′,7′-difluoro-1′H-[1,2′-bibenzo[d]imidazol]-6-yl) methanesulfonamide]",1000 to 10000 nM,> 10000 nM
"Fc1cc2ncn(-c3nc4ccc(Cl)nc4n3C3CC3)c2cc1F [Example 29, 5-chloro-3-cyclopropyl-2-(5,6-difluoro-1H-benzo[d]imidazol-1-yl)-3H-imidazo[4,5-b] pyridine]",1 to 100 nM,1000 to 10000 nM
"CS(=O)(=O)Nc1ccc2c(c1)ncn2-c1nc2cc(F)c(F)cc2n1C1CC1 [Example 46, N-(1′-cyclopropyl-5′,6′-difluoro-1′H-[1,2′-bibenzo[d]imidazol]-5-yl) methanesulfonamide]",100 to 1000 nM,> 10000 nM
"CS(=O)(=O)Nc1ccc2c(c1)ncn2-c1nc2ccc(F)c(F)c2n1C1CC1 [Example 31, N-(1′-cyclopropyl-6′,7′-difluoro-1′H-[1,2′-bibenzo[d]imidazol]-5-yl) methanesulfonamide]",1 to 100 nM,> 10000 nM
"Fc1cc2nc(-n3cnc4ncccc43)n(C3CC3)c2cc1F [Example 34, 1-(1-cyclopropyl-5,6-difluoro-1H-benzo[d]imidazol-2-yl)-1H-imidazo[4,5-b]pyridine]",1000 to 10000 nM,> 10000 nM
"CCc1ccc2c(c1)ncn2-c1nc2ccc(F)cc2n1C1CC1 [Example 10, 1′-cyclopropyl-5-ethyl-6′-fluoro-1′H-1,2′-bibenzo[d]imidazole]",1 to 100 nM,100 to 1000 nM
"N#Cc1ccc2nc(-n3cnc4cnccc43)n(C3CC3)c2c1 [Example 43, 1-cyclopropyl-2-(1H-imidazo[4,5-c]pyridin-1-yl)-1H-benzo[d]imidazole-6-carbonitrile]",1 to 100 nM,> 10000 nM
"Fc1ccc2nc(-n3cnc4c(F)c(F)ccc43)n(C3CC3)c2c1 [Example 3, 1′-cyclopropyl-4,5,6′-trifluoro-1′H-1,2′-bibenzo[d]imidazole]",1000 to 10000 nM,> 10000 nM
